According to PMC2819846 (Mutation research, 2008):
Read-outs that look alike come from different tables or passages of the source.

Tests used:
[1] = tested on: DNA from Salmonella TA100; assay: Abasic sites by aldehydic-site assay in DNA of treated TA100; assay type: cell-based; conditions: DMSO 5.9 ± 0.33
Salmonella TA104 = assay: Salmonella plate-incorporation mutagenicity assay, strain TA104, with S9 mix; assay type: cell-based
[2] = tested on: DNA from Salmonella TA100; assay: Stable DNA adducts by 32P-postlabeling in DNA of treated TA100; assay type: cell-based; conditions: DMSO 0.024 ± 0.000
strain TA100 = assay type: cell-based, Salmonella; conditions: TA100 liquid-suspension; for Rev/10^6 survivors: DMSO 0.8; for Percent survival: DMSO 100
Salmonella TA100 = assay: Salmonella plate-incorporation mutagenicity assay, strain TA100; assay type: cell-based; conditions: for Mutagenic potency, Revertants/µg ± S.E., TA100 / Mutagenicity call TA100: plate-incorporation, +S9
Salmonella TA98 = assay: Salmonella plate-incorporation mutagenicity assay, strain TA98, with S9 mix; assay type: cell-based; conditions: for Mutagenic potency, Revertants/µg ± S.E., TA98 / Mutagenicity call TA98: plate-incorporation, +S9
[3] = TA104 +S9, Test 2, 1 µg/plate, zero-dose 276/260/270
[4] = TA104 +S9, Test 2, 5 µg/plate, zero-dose 276/260/270
[5] = TA104 +S9, Test 3, 1 µg/plate, zero-dose 402/395/336
[6] = TA104 +S9, Test 3, 5 µg/plate, zero-dose 402/395/336
[7] = TA100 +S9, Test 1, 2 µg/plate, zero-dose 99/110/110
[8] = TA100 +S9, Test 1, 5 µg/plate, zero-dose 99/110/110
[9] = TA100 +S9, Test 1, 10 µg/plate, zero-dose 99/110/110
[10] = TA100 +S9, Test 1, 20 µg/plate, zero-dose 99/110/110
[11] = TA100 +S9, Test 1, 40 µg/plate, zero-dose 99/110/110
[12] = TA100 +S9, Test 1, 80 µg/plate, zero-dose 99/110/110
[13] = TA100 +S9, Test 2, 1 µg/plate, zero-dose 84/78/80
[14] = TA100 +S9, Test 2, 5 µg/plate, zero-dose 84/78/80
[15] = TA100 +S9, Test 3, 1 µg/plate, zero-dose 127/118/125
[16] = TA100 +S9, Test 3, 5 µg/plate, zero-dose 127/118/125
[17] = TA98 +S9, Test 1, 2 µg/plate, zero-dose 33/40/39
[18] = TA98 +S9, Test 1, 5 µg/plate, zero-dose 33/40/39
[19] = TA98 +S9, Test 1, 10 µg/plate, zero-dose 33/40/39
[20] = TA98 +S9, Test 1, 20 µg/plate, zero-dose 33/40/39
[21] = TA98 +S9, Test 1, 40 µg/plate, zero-dose 33/40/39
[22] = TA98 +S9, Test 1, 80 µg/plate, zero-dose 33/40/39
[23] = TA98 +S9, Test 2, 10 µg/plate, zero-dose 43/41/30
[24] = TA98 +S9, Test 3, 10 µg/plate, zero-dose 49/50/50

For `O[C@@H]1C=Cc2c(ccc3ccc4sccc4c23)[C@H]1O` (racemic) [P[3,4-b]T 8,9-diol, (±)-trans-8,9-Dihydrophenanthro[3,4-b]thiophene 8,9-diol], the “Abasic sites/10^5 nucleotides ± S.E” value ([1]; TA100, 2 µg/ml) was 2.9 ± 0.23 sites/10^5 nucleotides, the “Abasic sites/10^5 nucleotides ± S.E” value ([1]; TA100, 5 µg/ml) was 4.7 ± 0.25 sites/10^5 nucleotides and the Rev/plate (Salmonella TA104; TA104 +S9, Test 2, 0.5 µg/plate, zero-dose 276/260/270) was 486/465. For the same molecule, the Rev/plate (Salmonella TA104; [3]) was 213/673, the Rev/plate (Salmonella TA104; TA104 +S9, Test 2, 2.5 µg/plate, zero-dose 276/260/270) was 1311/1300 and the Rev/plate (Salmonella TA104; [4]) was 1723/1755. The Rev/plate (Salmonella TA104; TA104 +S9, Test 3, 0.5 µg/plate, zero-dose 402/395/336) was 566/525, the Rev/plate (Salmonella TA104; [5]) was 754/785 and the Rev/plate (Salmonella TA104; TA104 +S9, Test 3, 2.5 µg/plate, zero-dose 402/395/336) was 1235/1287. The Rev/plate (Salmonella TA104; [6]) was 1508/1620, the “Mutagenic potency, Revertants/µg ± S.E., TA104” value (Salmonella TA104; plate-incorporation, +S9) was 369 ± 28 rev/µg and the “Mutagenicity call TA104” value (Salmonella TA104; plate-incorporation, +S9) was “(+) (Called mutagenic (+) based on showing reproducible, dose-related increases in rev/plate that reached or exceeded 2-fold relative to zero-dose controls)”. The “Stable adducts/10^8 nucleotides ± S.E” value ([2]; TA100, 2 µg/ml) was 0.170 ± 0.045 adducts/10^8 nucleotides, the “Stable adducts/10^8 nucleotides ± S.E” value ([2]; TA100, 5 µg/ml) was 0.750 ± 0.045 adducts/10^8 nucleotides and the “Fold increase in mutant frequency relative to DMSO-treated cells” value (strain TA100; 2 µg/ml) was 2.5 fold. The “Rev/10^6 survivors” value (strain TA100; 2 µg/ml) was 2.0 Rev/10^6 survivors, the Percent survival (strain TA100; 2 µg/ml) was 91% and the “Fold increase in mutant frequency relative to DMSO-treated cells” value (strain TA100; 5 µg/ml) was 2.8 fold. The “Rev/10^6 survivors” value (strain TA100; 5 µg/ml) was 2.2 Rev/10^6 survivors, the Percent survival (strain TA100; 5 µg/ml) was 63% and the Rev/plate (Salmonella TA100; [7]) was 326 rev/plate. The Rev/plate (Salmonella TA100; [8]) was 554 rev/plate, the Rev/plate (Salmonella TA100; [9]) was 755 rev/plate and the Rev/plate (Salmonella TA100; [10]) was 995 rev/plate. For the same molecule, the Rev/plate (Salmonella TA100; [11]) was 992 rev/plate, the Rev/plate (Salmonella TA100; [12]) was 847 rev/plate and the Rev/plate (Salmonella TA100; TA100 +S9, Test 2, 0.5 µg/plate, zero-dose 84/78/80) was 80/94. The Rev/plate (Salmonella TA100; [13]) was 140/116, the Rev/plate (Salmonella TA100; TA100 +S9, Test 2, 2.5 µg/plate, zero-dose 84/78/80) was 268/224 and the Rev/plate (Salmonella TA100; [14]) was 352/315. The Rev/plate (Salmonella TA100; TA100 +S9, Test 3, 0.5 µg/plate, zero-dose 127/118/125) was 147/151, the Rev/plate (Salmonella TA100; [15]) was 178/187 and the Rev/plate (Salmonella TA100; TA100 +S9, Test 3, 2.5 µg/plate, zero-dose 127/118/125) was 347/430. The Rev/plate (Salmonella TA100; [16]) was 545/614, the “Mutagenic potency, Revertants/µg ± S.E., TA100” value (Salmonella TA100) was 80.0 ± 13.2 rev/µg and the “Mutagenicity call TA100” value (Salmonella TA100) was “(+) (Called mutagenic (+) based on showing reproducible, dose-related increases in rev/plate that reached or exceeded 2-fold relative to zero-dose controls)”. For the same molecule, the Rev/plate (Salmonella TA98; [17]) was 61 rev/plate, the Rev/plate (Salmonella TA98; [18]) was 87 rev/plate and the Rev/plate (Salmonella TA98; [19]) was 94 rev/plate. For the same molecule, the Rev/plate (Salmonella TA98; [20]) was 156 rev/plate, the Rev/plate (Salmonella TA98; [21]) was 285 rev/plate and the Rev/plate (Salmonella TA98; [22]) was 412 rev/plate. For the same molecule, the Rev/plate (Salmonella TA98; [23]) was 104/110, the Rev/plate (Salmonella TA98; TA98 +S9, Test 2, 20 µg/plate, zero-dose 43/41/30) was 124/134 and the Rev/plate (Salmonella TA98; TA98 +S9, Test 2, 40 µg/plate, zero-dose 43/41/30) was 276/244. The Rev/plate (Salmonella TA98; TA98 +S9, Test 2, 80 µg/plate, zero-dose 43/41/30) was 381/323, the Rev/plate (Salmonella TA98; [24]) was 143/142 and the Rev/plate (Salmonella TA98; TA98 +S9, Test 3, 20 µg/plate, zero-dose 49/50/50) was 193/190. For the same molecule, the Rev/plate (Salmonella TA98; TA98 +S9, Test 3, 40 µg/plate, zero-dose 49/50/50) was 315/359, the Rev/plate (Salmonella TA98; TA98 +S9, Test 3, 80 µg/plate, zero-dose 49/50/50) was 448/459 and the “Mutagenic potency, Revertants/µg ± S.E., TA98” value (Salmonella TA98) was 5.6 ± 0.8 rev/µg. For the same molecule, the “Mutagenicity call TA98” value (Salmonella TA98) was “(+) (Called mutagenic (+) based on showing reproducible, dose-related increases in rev/plate that reached or exceeded 2-fold relative to zero-dose controls)”.
For `c1ccc2c(c1)ccc1ccc3ccsc3c12` [P[4,3-b]T, Phenanthro[4,3-b]thiophene], the Rev/plate (Salmonella TA104; [3]) was 392/313, the Rev/plate (Salmonella TA104; TA104 +S9, Test 2, 2 µg/plate, zero-dose 276/260/270) was 414/432 and the Rev/plate (Salmonella TA104; [4]) was 419/440. For the same molecule, the Rev/plate (Salmonella TA104; TA104 +S9, Test 2, 10 µg/plate, zero-dose 276/260/270) was 437/473, the Rev/plate (Salmonella TA104; [5]) was 457/397 and the Rev/plate (Salmonella TA104; TA104 +S9, Test 3, 2 µg/plate, zero-dose 402/395/336) was 468/515. For the same molecule, the Rev/plate (Salmonella TA104; [6]) was 490/505, the Rev/plate (Salmonella TA104; TA104 +S9, Test 3, 10 µg/plate, zero-dose 402/395/336) was 489/509 and the Rev/plate (Salmonella TA104; TA104 +S9, Test 4, 1 µg/plate, zero-dose 482/455/462) was 517/524. For the same molecule, the Rev/plate (Salmonella TA104; TA104 +S9, Test 4, 2 µg/plate, zero-dose 482/455/462) was 532/540, the Rev/plate (Salmonella TA104; TA104 +S9, Test 4, 5 µg/plate, zero-dose 482/455/462) was 540/497 and the Rev/plate (Salmonella TA104; TA104 +S9, Test 4, 10 µg/plate, zero-dose 482/455/462) was 520/592. The “Mutagenic potency, Revertants/µg ± S.E., TA104” value (Salmonella TA104; plate-incorporation, +S9) was 58.9 ± 7.9 rev/µg, the Rev/plate (Salmonella TA100; [7]) was 172 rev/plate and the Rev/plate (Salmonella TA100; [8]) was 194 rev/plate. It also gave a Rev/plate (Salmonella TA100; [9]) of 190 rev/plate, a Rev/plate (Salmonella TA100; [10]) of 125 rev/plate and a Rev/plate (Salmonella TA100; [11]) of 188 rev/plate. For the same molecule, the Rev/plate (Salmonella TA100; [12]) was 164 rev/plate, the Rev/plate (Salmonella TA100; [13]) was 80/84 and the Rev/plate (Salmonella TA100; TA100 +S9, Test 2, 2 µg/plate, zero-dose 84/78/80) was 92/89. The Rev/plate (Salmonella TA100; [14]) was 116/108, the Rev/plate (Salmonella TA100; TA100 +S9, Test 2, 10 µg/plate, zero-dose 84/78/80) was 119/98 and the Rev/plate (Salmonella TA100; [15]) was 142/160. For the same molecule, the Rev/plate (Salmonella TA100; TA100 +S9, Test 3, 2 µg/plate, zero-dose 127/118/125) was 185/164, the Rev/plate (Salmonella TA100; [16]) was 218/248 and the Rev/plate (Salmonella TA100; TA100 +S9, Test 3, 10 µg/plate, zero-dose 127/118/125) was 274/291. The Rev/plate (Salmonella TA100; TA100 +S9, Test 4, 1 µg/plate, zero-dose 112/140/115) was 160/156, the Rev/plate (Salmonella TA100; TA100 +S9, Test 4, 2 µg/plate, zero-dose 112/140/115) was 164/156 and the Rev/plate (Salmonella TA100; TA100 +S9, Test 4, 5 µg/plate, zero-dose 112/140/115) was 218/198. For the same molecule, the Rev/plate (Salmonella TA100; TA100 +S9, Test 4, 10 µg/plate, zero-dose 112/140/115) was 275/234, the “Mutagenic potency, Revertants/µg ± S.E., TA100” value (Salmonella TA100) was 12.8 ± 3.9 rev/µg and the “Mutagenicity call TA100” value (Salmonella TA100) was “(+) (Called mutagenic (+) based on showing reproducible, dose-related increases in rev/plate that reached or exceeded 2-fold relative to zero-dose controls)”. It also gave a Rev/plate (Salmonella TA98; [17]) of 61 rev/plate, a Rev/plate (Salmonella TA98; [18]) of 137 rev/plate and a Rev/plate (Salmonella TA98; [19]) of 141 rev/plate. The Rev/plate (Salmonella TA98; [20]) was 146 rev/plate, the Rev/plate (Salmonella TA98; [21]) was 158 rev/plate and the Rev/plate (Salmonella TA98; [22]) was 105 rev/plate. The Rev/plate (Salmonella TA98; TA98 +S9, Test 2, 1 µg/plate, zero-dose 43/41/30) was 39/49, the Rev/plate (Salmonella TA98; TA98 +S9, Test 2, 2 µg/plate, zero-dose 43/41/30) was 41/33 and the Rev/plate (Salmonella TA98; TA98 +S9, Test 2, 5 µg/plate, zero-dose 43/41/30) was 97/77. For the same molecule, the Rev/plate (Salmonella TA98; [23]) was 110/79, the Rev/plate (Salmonella TA98; TA98 +S9, Test 3, 1 µg/plate, zero-dose 49/50/50) was 93/74 and the Rev/plate (Salmonella TA98; TA98 +S9, Test 3, 2 µg/plate, zero-dose 49/50/50) was 98/77. For the same molecule, the Rev/plate (Salmonella TA98; TA98 +S9, Test 3, 5 µg/plate, zero-dose 49/50/50) was 162/166, the Rev/plate (Salmonella TA98; [24]) was 194/213 and the “Mutagenic potency, Revertants/µg ± S.E., TA98” value (Salmonella TA98) was 13.7 ± 3.3 rev/µg. The “Mutagenicity call TA98” value (Salmonella TA98) was “(+) (Called mutagenic (+) based on showing reproducible, dose-related increases in rev/plate that reached or exceeded 2-fold relative to zero-dose controls)”.
